Data published in the Kinase Knowledgebase extract (Sharma et al. 2016).

Target: MAPK14;MAPK11;MAPK12 (human) (UniProt Q16539)
Experiment: Inhibition of p38 Kinase Activity

SMILES | IC50
Cc1ccc(C(N)=O)cc1Nc1nc(NC[C@H]2CCCN2)nc(N(C)CC(C)C)n1 | < 1000 nM
CNCCCN(C)c1nc(NC[C@@H]2CC[C@H]3C[C@@H]2C3(C)C)nc(Nc2ccc3ncsc3c2)n1 | < 10000 nM
CCONC(=O)c1ccc(C)c(Nc2nc(N(C)CC(C)(C)C)cc(N3CCCN(C)CC3)n2)c1 | < 1000 nM
CN(CCN(C)c1nc(NCCc2ccccc2)nc(Nc2ccc3ncsc3c2)n1)C(=O)CCC(=O)O | < 10000 nM
CONC(=O)c1ccc(C)c(Sc2nc(N[C@@H]3CCNC3)nc(N(C)CC(C)(C)C)n2)c1 | < 30000 nM
CC1(C)[C@H]2CC[C@@H](CNc3nc(Nc4ccc5ncsc5c4)nc(N4CCNCC4)n3)[C@@H]1C2 | < 10000 nM
Cc1ccc(C(N)=O)cc1Nc1nc(NC2CCN(C(C)C)CC2)nc(N(C)CC(C)(C)C)n1 | < 1000 nM
CC(CNc1nc(Nc2ccc3ncsc3c2)nc(N(C)CCCN(C)C(=O)C2CCOC2)n1)c1ccccc1 (stereo unspecified) | < 10000 nM
COCC(=O)N(C)CCCN(C)c1nc(NCC(C)c2ccccc2)nc(Nc2ccc3ncsc3c2)n1 (stereo unspecified) | < 10000 nM
CCCN1CC[C@@H](Nc2nc(Nc3cc(C(N)=O)ccc3C)nc(N(C)CC(C)C)n2)C1 | < 1000 nM
C[C@H](CNc1nc(NCCO)nc(Nc2ccc3ncsc3c2)n1)c1ccccc1 | < 10000 nM
O=C(O)CCC(=O)N1CCN(c2nc(Nc3ccc4ncsc4c3)nc(NC3CCc4ccccc43)n2)CC1 (stereo unspecified) | < 10000 nM
NC(=O)CNc1nc(Nc2ccc3ncsc3c2)nc(NC2CCc3ccccc32)n1 (stereo unspecified) | < 10000 nM
CC(CNc1nc(Nc2ccc3ncsc3c2)nc(N2CC3CC2CN3S(=O)(=O)N(C)C)n1)c1ccccc1 (stereo unspecified) | < 10000 nM
Cc1ccc(C(N)=O)cc1Sc1nc(NCc2ccccn2)nc(N(C)CC(C)(C)C)n1 | < 30000 nM
CONC(=O)c1ccc(C)c(Nc2nc(NCCCN3CCCC3)nc(N(C)CC(C)(C)C)n2)c1 | < 1000 nM
Cc1ccc(C(N)=O)cc1Nc1nc(NCC2CCNCC2)nc(NC2CCCC2)n1 | < 1000 nM
CN(C)c1nc(Nc2ccc3ncsc3c2)nc(NC(C)(C)Cc2ccccc2)n1 | < 10000 nM
CONC(=O)c1ccc(C)c(Nc2nc(Cl)nc(N(C)CC(C)(C)C)n2)c1 | < 1000 nM
Cc1ccc(CNC(C)C)cc1Nc1nc(N[C@H]2CCNC2)nc(N(C)CC(C)(C)C)n1 | < 1000 nM
CONC(=O)c1ccc(C)c(Nc2nc(NCCCn3ccnc3)nc(N(C)CC(C)(C)C)n2)c1 | < 1000 nM
Cc1ccc(C(N)=O)cc1Nc1nc(NCCc2ccc3c(c2)OCO3)nc(N[C@H]2CCNC2)n1 | < 1000 nM
CC(CNc1nc(Nc2ccc3ncsc3c2)nc(N2CCN(C(=O)c3cccnc3)CC2)n1)c1ccccc1 (stereo unspecified) | < 10000 nM

SMILES | IC50
Cc1ccccc1NC(=S)N(C)CCCN(C)c1nc(NCC(C)c2ccccc2)nc(Nc2ccc3ncsc3c2)n1 (stereo unspecified) | < 10000 nM
Cc1ccc(C(=O)Nc2cccc(F)c2)cc1Nc1nc(N[C@H]2CCNC2)nc(N(C)CC(C)(C)C)n1 | < 1000 nM
CNC(=O)c1ccc(C)c(Nc2nc(N[C@H]3CCN(C(C)CO)C3)nc(N(C)CC(C)(C)C)n2)c1 (stereo partly specified) | < 1000 nM
Cc1ccc(C(N)=O)cc1Nc1nc(N[C@H]2CCN(C3CCCCC3)C2)nc(N(C)CC(C)(C)C)n1 | < 1000 nM
CONC(=O)c1ccc(C)c(Nc2nc(NCc3ccc(Cl)c(Cl)c3)nc(N(C)CC(C)(C)C)n2)c1 | < 1000 nM
CONC(=O)c1ccc(C)c(Nc2nc(N[C@@H]3CCNC3)nc(N(C)CC(C)C(F)(F)F)n2)c1 (stereo partly specified) | < 1000 nM
Cc1ccc(C(N)=O)cc1Nc1nc(N[C@H]2CCN(C(C)C#N)C2)nc(N(C)CC(C)C)n1 (stereo partly specified) | < 1000 nM
CC(C)C(=O)N(C)CCCN(C)c1nc(NCC(C)c2ccccc2)nc(Nc2ccc3ncsc3c2)n1 (stereo unspecified) | < 10000 nM
Cc1ccc(-c2nnco2)cc1Nc1nc(N[C@@H]2CCNC2)nc(N(C)CC(C)(C)C)n1 | < 1000 nM
Cc1ccc2ncn(-c3nc(NCCOC(C)C)cc(N(C)C)n3)c2c1 | < 10000 nM
Cc1ccc(C(N)=O)cc1Nc1nc(NCC(C)c2ccc(Cl)cc2)nc(N[C@H]2CCNC2)n1 (stereo partly specified) | < 1000 nM
Cc1ccc(N)cc1Nc1nc(N[C@H]2CCNC2)nc(N(C)CC(C)(C)C)n1 | < 1000 nM
CCN1CCC[C@@H](Nc2nc(Nc3cc(C(N)=O)ccc3C)nc(N(C)CC(C)(C)C)n2)C1 | < 1000 nM
Cc1ccc(C(N)=O)cc1Nc1nc(N[C@H]2CCN(Cc3ccc(C(C)(C)C)cc3)C2)nc(N(C)CC(C)C)n1 | < 1000 nM
Cc1ccc(C(N)=O)cc1Nc1nc(NC2CCCN(C(C)C)C2)nc(N(C)CC(C)C)n1 (stereo unspecified) | < 1000 nM
CCNC(=O)c1ccc(C)c(Nc2nc(NCC(C)(C)C)nc(N[C@H]3CCNC3)n2)c1 | < 1000 nM
CC(C)CN(C)c1nc(Nc2cc(C(N)=O)ccc2C(F)(F)F)nc(N[C@H]2CCNC2)n1 | < 1000 nM
Cc1ccc(C(N)=O)cc1Nc1nc(N[C@@H]2CCN(C(C)CC(C)C)C2)nc(N(C)CC(C)C)n1 (stereo partly specified) | < 1000 nM
CNc1nc(Nc2ccc3ncsc3c2)nc(N[C@H](C)C2CCCCC2)n1 | < 10000 nM
CONC(=O)c1ccc(C)c(Nc2cc(F)nc(N(C)CC(C)(C)C)n2)c1 | < 1000 nM
CCNC(=O)c1ccc(C)c(Nc2nc(N[C@@H]3CCN(C4=CC(=O)CC(C)(C)C4)C3)nc(N(C)CC(C)(C)C)n2)c1 | < 1000 nM
Cc1ccc(C(N)=O)cc1Nc1nc(N[C@H]2CCN(CCC#N)C2)nc(N(C)CC(C)(C)C)n1 | < 1000 nM
Cc1c(Nc2nc(NC[C@@H]3CC[C@H]4C[C@H]3C4(C)C)nc(N(C)CC(C)C)n2)cccc1C(N)=O | < 1000 nM
